These results are taken from PMC6940354, “Comparative Assessment of the New PDE7 Inhibitor – GRMS-55 and Lisofylline in Animal Models of Immune-Related Disorders: A PK/PD Modeling Approach” (Pharmaceutical Research, 2020).

Marks after values point to notes of the source that are not given here.

For one series, the target named is T1, hrPDE1B (Homo sapiens, UniProt Q01064).
T1 construct: purchased SignalChem, Richmond, Canada
Description: PDE-Glo Phosphodiesterase Assay, hrPDE1B. It counts as biochemical. The settings on record: cAMP substrate, read-out: IC50 PDE1B, Estimate (CV%).

The target of the next series is hrPDE10A (Homo sapiens, UniProt Q9Y233). Briefly: PDE-Glo Phosphodiesterase Assay, hrPDE10A.
hrPDE10A, sequence (Q9Y233 whole entry): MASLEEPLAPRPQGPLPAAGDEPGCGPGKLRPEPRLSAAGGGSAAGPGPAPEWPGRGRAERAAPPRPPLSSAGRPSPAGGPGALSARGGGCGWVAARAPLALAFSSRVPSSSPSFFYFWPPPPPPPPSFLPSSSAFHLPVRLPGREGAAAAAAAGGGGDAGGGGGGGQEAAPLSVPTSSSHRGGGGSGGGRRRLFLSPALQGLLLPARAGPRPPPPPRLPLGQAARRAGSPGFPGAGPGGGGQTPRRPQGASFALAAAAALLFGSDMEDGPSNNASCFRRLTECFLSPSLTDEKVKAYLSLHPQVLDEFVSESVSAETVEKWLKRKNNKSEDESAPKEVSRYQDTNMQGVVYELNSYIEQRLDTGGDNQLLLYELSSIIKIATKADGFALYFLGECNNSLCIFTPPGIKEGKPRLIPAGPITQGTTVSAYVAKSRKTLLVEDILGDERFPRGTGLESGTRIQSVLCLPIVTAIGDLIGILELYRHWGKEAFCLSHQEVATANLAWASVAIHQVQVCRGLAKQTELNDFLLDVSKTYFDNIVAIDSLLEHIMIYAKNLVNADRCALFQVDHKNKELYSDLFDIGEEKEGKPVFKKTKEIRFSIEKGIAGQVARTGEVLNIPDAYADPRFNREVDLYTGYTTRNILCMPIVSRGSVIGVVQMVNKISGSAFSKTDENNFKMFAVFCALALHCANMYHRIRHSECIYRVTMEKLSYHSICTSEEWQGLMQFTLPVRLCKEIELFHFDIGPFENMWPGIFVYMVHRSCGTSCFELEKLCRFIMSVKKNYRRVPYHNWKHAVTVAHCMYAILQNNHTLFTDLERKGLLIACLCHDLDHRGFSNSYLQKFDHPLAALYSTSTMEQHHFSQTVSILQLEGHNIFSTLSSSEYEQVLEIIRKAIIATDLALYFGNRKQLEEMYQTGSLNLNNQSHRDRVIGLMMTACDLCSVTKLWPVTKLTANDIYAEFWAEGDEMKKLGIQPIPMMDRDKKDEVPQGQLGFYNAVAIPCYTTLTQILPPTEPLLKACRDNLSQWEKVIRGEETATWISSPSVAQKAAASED
The next series concerns the target hrPDE5A (Homo sapiens, UniProt O76074). Briefly: PDE-Glo Phosphodiesterase Assay, hrPDE5A.
For another series, the target named is T2, hrPDE7A (Homo sapiens, UniProt Q13946).
T2 construct: purchased SignalChem, Richmond, Canada
T2 sequence (Q13946 whole entry): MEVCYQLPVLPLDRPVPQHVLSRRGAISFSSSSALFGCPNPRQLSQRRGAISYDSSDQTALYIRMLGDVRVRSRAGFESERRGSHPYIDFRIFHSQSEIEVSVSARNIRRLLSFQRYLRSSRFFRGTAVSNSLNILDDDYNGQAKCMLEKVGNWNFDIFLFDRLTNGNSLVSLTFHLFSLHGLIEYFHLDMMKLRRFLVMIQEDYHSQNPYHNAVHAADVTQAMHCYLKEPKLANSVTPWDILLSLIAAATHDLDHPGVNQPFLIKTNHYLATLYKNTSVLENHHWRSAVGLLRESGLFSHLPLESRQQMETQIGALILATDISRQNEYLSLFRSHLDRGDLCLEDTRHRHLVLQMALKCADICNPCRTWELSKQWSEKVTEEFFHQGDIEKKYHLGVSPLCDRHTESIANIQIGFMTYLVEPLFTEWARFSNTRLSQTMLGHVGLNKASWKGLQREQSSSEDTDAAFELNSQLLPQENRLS
Briefly: PDE-Glo Phosphodiesterase Assay, hrPDE7A. It counts as biochemical. The conditions noted are these: cAMP substrate, read-out: IC50 PDE7A, Estimate (CV%).

Another series concerns cAMP degradation. More on the design: method as in PMID 28730281. The settings on record: rats, cAMP as a marker of pharmacological response ref [9]; cited from earlier work.
The target of another series is hrPDE3A (Homo sapiens, UniProt Q14432). Briefly: PDE-Glo Phosphodiesterase Assay, hrPDE3A.
hrPDE3A, sequence (Q14432 whole entry): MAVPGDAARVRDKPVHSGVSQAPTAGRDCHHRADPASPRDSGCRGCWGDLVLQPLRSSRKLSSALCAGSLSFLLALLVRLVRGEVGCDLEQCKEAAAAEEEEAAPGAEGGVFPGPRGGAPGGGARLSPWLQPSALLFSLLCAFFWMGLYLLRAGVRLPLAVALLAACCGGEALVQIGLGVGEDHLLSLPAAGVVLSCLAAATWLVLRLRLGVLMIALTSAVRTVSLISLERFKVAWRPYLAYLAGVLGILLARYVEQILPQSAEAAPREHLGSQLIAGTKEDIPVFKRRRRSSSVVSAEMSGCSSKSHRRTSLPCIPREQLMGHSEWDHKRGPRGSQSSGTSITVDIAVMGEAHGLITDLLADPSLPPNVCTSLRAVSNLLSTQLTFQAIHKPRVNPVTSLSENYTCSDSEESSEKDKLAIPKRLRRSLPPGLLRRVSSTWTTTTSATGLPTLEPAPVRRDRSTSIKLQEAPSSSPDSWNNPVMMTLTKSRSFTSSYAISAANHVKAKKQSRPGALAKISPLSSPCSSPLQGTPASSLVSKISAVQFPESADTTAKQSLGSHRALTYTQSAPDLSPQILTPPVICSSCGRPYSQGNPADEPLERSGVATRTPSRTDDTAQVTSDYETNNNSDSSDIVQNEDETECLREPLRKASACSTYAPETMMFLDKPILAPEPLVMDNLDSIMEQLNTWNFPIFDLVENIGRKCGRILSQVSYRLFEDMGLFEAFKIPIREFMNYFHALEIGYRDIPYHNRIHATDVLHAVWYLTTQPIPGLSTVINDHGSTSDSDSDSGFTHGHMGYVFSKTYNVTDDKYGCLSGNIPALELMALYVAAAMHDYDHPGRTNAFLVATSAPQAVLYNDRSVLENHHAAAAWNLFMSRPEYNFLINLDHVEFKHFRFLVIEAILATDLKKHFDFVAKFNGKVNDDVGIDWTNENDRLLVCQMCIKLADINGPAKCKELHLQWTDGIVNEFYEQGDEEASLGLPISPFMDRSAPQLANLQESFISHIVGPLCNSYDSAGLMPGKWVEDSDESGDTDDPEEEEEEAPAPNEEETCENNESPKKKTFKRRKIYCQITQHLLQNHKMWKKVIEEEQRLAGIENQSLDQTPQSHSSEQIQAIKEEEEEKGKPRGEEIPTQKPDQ
The next series deals with hrPDE4D (Homo sapiens, UniProt Q08499). Description: PDE-Glo Phosphodiesterase Assay, hrPDE4D.
hrPDE4D, sequence (Q08499 whole entry): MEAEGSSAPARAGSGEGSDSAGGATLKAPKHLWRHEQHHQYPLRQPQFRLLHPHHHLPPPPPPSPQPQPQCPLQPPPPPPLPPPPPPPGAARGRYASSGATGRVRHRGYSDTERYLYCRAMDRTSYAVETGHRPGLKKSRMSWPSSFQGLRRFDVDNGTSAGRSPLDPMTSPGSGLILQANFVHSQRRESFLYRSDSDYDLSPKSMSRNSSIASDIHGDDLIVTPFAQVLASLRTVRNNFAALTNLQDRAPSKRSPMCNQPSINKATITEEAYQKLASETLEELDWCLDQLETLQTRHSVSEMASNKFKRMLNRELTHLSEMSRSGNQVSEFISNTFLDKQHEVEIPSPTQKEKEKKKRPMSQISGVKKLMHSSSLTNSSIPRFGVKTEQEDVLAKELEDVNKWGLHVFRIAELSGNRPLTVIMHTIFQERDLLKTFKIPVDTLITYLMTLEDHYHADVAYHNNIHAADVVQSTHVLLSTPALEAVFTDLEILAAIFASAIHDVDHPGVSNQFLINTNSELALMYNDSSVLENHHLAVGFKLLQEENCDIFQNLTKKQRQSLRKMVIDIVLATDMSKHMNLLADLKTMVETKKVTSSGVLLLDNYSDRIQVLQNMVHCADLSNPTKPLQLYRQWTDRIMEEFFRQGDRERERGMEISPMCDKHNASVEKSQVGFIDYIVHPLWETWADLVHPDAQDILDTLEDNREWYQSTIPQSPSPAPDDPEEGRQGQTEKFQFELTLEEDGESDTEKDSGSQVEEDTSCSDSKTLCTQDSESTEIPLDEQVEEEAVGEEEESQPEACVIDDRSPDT
Details of series [1]: method as in PMID 27065076. The settings on record: male Wistar rats; data already published ref [10]; cited from earlier work.
Series [2] in a line: Pharmacokinetics in male Wistar rats. It counts as in vivo, rat. The conditions noted are these: for half-life: male rats (Wistar), IV, read-out: elimination half-life. The protocol: The same vehicles as these in pharmacodynamic studies for each compound and route of administration were used. Rats were implanted with catheters into the jugular vein and after a two-day period they were administered with the investigated compounds by the listed above routes of administration. […] Samples were subsequently centrifuged at 3000 × g for 10 min. Plasma was stored at −80°C until analysis.
A detailed description of these methods has been provided in the supplementary materials.
Firstly, the concentration-time data collected for each individual compound from one of the investigated rat strains (Wistar or Lewis) were subjected to a non-compartmental analysis (NCA). Subsequently, pharmacokinetic models were developed for each investigated compound and strain of rat. One- and two- compartment models with linear or non-linear elimination were tested. […] The final models were chosen based on the goodness-of-fit criteria, such as Akaike Information Criterion (AIC), Schwarz Bayesian Criterion (SBC), weighted sum of squared residuals (WSSR), a visual inspection of fitting, and precision of estimated parameters expressed as coefficients of variation % (CVs%). NCA analysis was performed in Phoenix WinNonlin v. 7.0 (Pharsight Corp., a Certara Company, Princeton, New Jersey). Pharmacokinetic model parameters were estimated in ADAPT 5 software (BMSR, Los Angeles, CA) using the weighted least squares algorithm. Fraction of the dose absorbed (F) following an extravascular (EV) administration was calculated according to the Eq. 4:4 F=AUC0−tEV·DIV/AUC0−tIV·DEV where AUC0-t is the area under concentration versus time curve from 0 to the last measured point and D is dose.
PK/PD and PK/PD/DIS progression models were developed considering the mechanism of action of the investigated compounds, the mechanisms of disease progression in the case of CIA, and the subsequent stages leading to TNF-α release in the case of LPS-induced endotoxemia. Various numbers of transit compartments were tested during development of the models, and the final models were chosen based on the goodness-of-fit criteria, such as AIC, SBC, a visual inspection of the fitting, and parameter precision. Estimated values of pharmacokinetic parameters were fixed during PK/PD and PK/PD/DIS progression model fitting procedures. […] PK/PD and PK/PD/DIS progression modeling were performed in ADAPT 5 software using the weighted least squares algorithm.
The applied model is a modified indirect response model ([19]) with implemented transit compartments (T1-T4) that describe the delay of the observed pharmacodynamic response. In this scheme τ is the mean transit time, kin is the time limited (from 0 to tlag) zero-order rate constant of production of a TNF-α precursor (e.g., TNF-α mRNA). […]

The conditions of series [3]: depending on the species; earlier study ref [37]; cited from earlier work.
Series [4] has as its system LPS-stimulated murine macrophages (RAW263.7 cells). More on the design: method as in PMID 14998551. The conditions noted are these: LPS-stimulated murine macrophage cell line ref [31]; read-out: IC50, TNF-α production; cited from earlier work.

T1 sequence (Q01064 whole entry): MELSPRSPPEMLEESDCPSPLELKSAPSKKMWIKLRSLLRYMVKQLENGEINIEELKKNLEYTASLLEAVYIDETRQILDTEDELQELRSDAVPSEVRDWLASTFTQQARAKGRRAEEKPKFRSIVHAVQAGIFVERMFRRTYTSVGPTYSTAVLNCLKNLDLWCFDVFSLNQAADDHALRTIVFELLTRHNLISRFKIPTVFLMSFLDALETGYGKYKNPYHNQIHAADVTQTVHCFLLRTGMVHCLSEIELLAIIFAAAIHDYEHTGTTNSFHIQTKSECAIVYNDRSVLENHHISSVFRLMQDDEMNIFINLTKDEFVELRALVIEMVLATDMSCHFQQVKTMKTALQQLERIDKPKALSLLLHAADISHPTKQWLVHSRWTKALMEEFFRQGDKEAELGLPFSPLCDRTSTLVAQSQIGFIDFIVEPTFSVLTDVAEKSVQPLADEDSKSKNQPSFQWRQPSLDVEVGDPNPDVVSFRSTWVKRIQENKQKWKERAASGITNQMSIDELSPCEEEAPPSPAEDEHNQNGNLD
Description for hrPDE10A: (§1) Inhibitory activity of the investigated and reference compounds against various subtypes of PDEs was analyzed using the PDE-Glo Phosphodiesterase Assay following the manufacturer’s instruction (Promega Corp., USA). […] The values of IC50, Imax, and γ parameters of the investigated and reference compounds were estimated using non-linear regression in Phoenix WinNonlin v. […] Each sample was performed in quadruplicate and the relative activity of each sample was calculated as E=sample activity/control activity·100% .
(§2) One and a half μL aliquots of PDE-Glo reaction buffer containing appropriate amounts of human recombinant PDE (hrPDE) 1B, 2A, 3A, 4B, 4D, 5A, 7A, or 10A (SignalChem, Richmond, Canada) were placed into separate wells of a 384-well plate (Thermo Scientific, USA). The investigated compounds were initially dissolved in DMSO and then a serial dilution with DMSO was performed. Each dilution was mixed with PDE-Glo reaction buffer at a ratio of 1:5 (v/v). Then, 1 μL of the solution containing a PDE inhibitor and 2.5 μL of the substrate solution were added to each well. cGMP was used as a substrate in the case of hrPDE2A and hrPDE5A, while cAMP for other types of hrPDEs. The samples were incubated for 10 min at 30°C. […] The luminescence of each sample was measured by a microplate reader POLARstar Omega (BMG LABTECH, Germany).
Description for hrPDE1B: as §1, §2
Description for hrPDE3A: as §1, §2
Description for hrPDE4D: as §1, §2
Description for hrPDE5A: as §1, §2
Description for hrPDE7A: as §1, §2

For `CC(O)CCCCn1c(=O)c2c(ncn2C)n(C)c1=O` (racemic) [(±)-LSF, lisofylline], the IC50 was 12.9 µM on hrPDE1B; greater than 100 µM against hrPDE10A; greater than 100 µM at hrPDE5A; 297 µM on hrPDE7A; 73.4 µM against hrPDE3A; greater than 200 µM against hrPDE4D. The “IC50 value for the inhibition of cAMP degradation” value in the series on cAMP degradation is 3.43 µg/mL. In addition, in series [1], the “VLSF, volume of distribution of (±)-LSF, Estimate (CV%)” value is listed as 1.22 (3.4)^a L kg^−1. Also, the “Vmax, maximal elimination rate constant of (±)-LSF, Estimate (CV%)” value in series [1] is given as 0.433 (56.9)^a mg min^−1 kg^−1.
Take `Cn1c(=O)c2c(nc(NCCc3ccccc3)n2CCCC(=O)NN=Cc2ccccc2O)n(C)c1=O` [GRMS-55, 4-(1,3-Dimethyl-2,6-dioxo-8-(phenethylamino)-2,3,6,7-tetrahydro-1H-purin-7-yl)-N′-(2-hydroxybenzylidene)butanehydrazide]: the IC50 at hrPDE1B is 2.5 µM; at hrPDE10A it was 23.3 µM; against hrPDE5A, greater than 100 µM; against hrPDE3A, 13.4 µM; against hrPDE4D it was greater than 200 µM. Besides, in [2] (compared to rolipram), the “elimination rate constant, times lower than that of rolipram” value is given as “approx. 2 times”. Further, the Vd in series [2] (rat, plasma, male Wistar rats, GRMS-55 IV 20 mg kg^−1, 1-compartment model, read-out: V(GRMS-55), volume of distribution, Estimate (CV%)) is 1.59 L/kg. In addition, the half-life in series [2] (rat, plasma) is 22 min.
Regarding `COc1ccc(C2CNC(=O)C2)cc1OC1CCCC1` (centres unmarked) [Rolipram, rolipram], the elimination half-life in [3] was 60 to 180 min. The half-life in [2] (rat, plasma) turned out to be 11 min. Besides, the IC50 in series [4] was 0.0593 µM.
